From patent US6995143B2, “Macrolides with antibacterial activity” (Basilea Pharmaceutica AG, priority 2002, dated 2006) come the findings set out here.

Common to all, as to type: cell-based
In assay [1] the test system is Streptococcus pneumoniae SL199T. Description: MIC, standard microdilution technique. Conditions: for MIC: read-out: minimum inhibitory concentration (MIC), Strain G. From the text:
(§1) The antibacterial activities of the compounds have been determined by standard microdilution technique (National Committee for Clinical Laboratory Standards. 2000. Methods for Dilution Antimicrobial Susceptibility Tests for Bacteria that Grow Aerobically, 5th edition. Approved standard M7-A5. National Committee for Clinical Laboratory Standards, Wayne, Pa.).
For orientation: Dilution methods test growth across graded concentrations, often in twofold steps.

The test system of assay [2] is Escherichia coli ATCC 25922. The assay can be described thus: MIC, standard microdilution technique. The conditions noted are these: for MIC: ATCC25922, read-out: minimum inhibitory concentration (MIC), Strain D.
Description: as §1

Assay [3] has as its system Streptococcus pneumoniae 12288. The assay can be described thus: MIC, standard microdilution technique. The conditions noted are these: for MIC: read-out: minimum inhibitory concentration (MIC), Strain H.
Description: as §1

The subject of assay [4] is Staphylococcus aureus 1086. The assay can be described thus: MIC, standard microdilution technique. The conditions noted are these: for MIC: read-out: minimum inhibitory concentration (MIC), Strain B.
Description: as §1

Assay [5] relates to Streptococcus pneumoniae ¼. Description: MIC, standard microdilution technique.
Description: as §1

Assay [6] concerns Staphylococcus aureus 745. Description: MIC, standard microdilution technique. The conditions noted are these: for MIC: read-out: minimum inhibitory concentration (MIC), Strain C.
Description: as §1

Assay [7] relates to Staphylococcus aureus ATCC 29213. The assay can be described thus: MIC, standard microdilution technique. The conditions noted are these: for MIC: ATCC29213, read-out: minimum inhibitory concentration (MIC), Strain A.
Description: as §1

Assay [8] concerns Streptococcus pneumoniae l/l. The assay can be described thus: MIC, standard microdilution technique.
Description: as §1

In assay [9] the test system is Haemophilus influenzae B1501. Description: MIC, standard agar dilution method using HTM medium. The conditions noted are these: for MIC: read-out: minimum inhibitory concentration (MIC), Strain M. From the text: (§2) The biological activities of compounds of the present invention against Haemophilus influenzae have been determined by standard agar dilution method using HTM medium (National Committee for Clinical Laboratory Standards. 2000. Methods for Dilution Antimicrobial Susceptibility Tests for Bacteria that Grow Aerobically, 5th edition. Approved standard M7-A5. National Committee for Clinical Laboratory Standards, Wayne, Pa.).
On the technique in general: In agar dilution, organisms are placed on agar that contains the substance at set levels.

Assay [10] concerns Haemophilus influenzae 12214. The assay is described as above. Conditions: for MIC: read-out: minimum inhibitory concentration (MIC), Strain K.
Description: as §2

Assay [11] concerns Haemophilus influenzae QK12/87. Described as above. The conditions noted are these: for MIC: read-out: minimum inhibitory concentration (MIC), Strain I.
Description: as §2

The subject of assay [12] is Haemophilus influenzae QK50. The description is as above. The conditions noted are these: for MIC: read-out: minimum inhibitory concentration (MIC), Strain L.
Description: as §2

Values after ≈ are worked out from the molar mass of the structure shown.

As for `CC[C@H]1OC(=O)[C@@](C)(F)C(=O)[C@H](C)[C@@H](O[C@@H]2O[C@H](C)C[C@H](N(C)C)[C@H]2O)[C@](C)(OC)C[C@@H](C)C(=O)[C@H](C)[C@H]2[C@@H](SCc3ccc(OC)cc3)C(=O)O[C@@]21C` (single isomer, unassigned) [Example 1, (3R or S, 3aR, 4R or S, 6R, 8R, 9R, 10R, 12S, 15R, 15aS)-15-Ethyl-12-fluorooctahydro-8-methoxy-3-[[(4-methoxyphenyl)methyl]thio]-4,6,8,10,12,15a-hexamethyl-9-[[3,4,6-trideoxy-3-(dimethylamino)-β-D-xylo-hexopyranosyl]oxy]-2H-furo [2,3-c] oxacyclotetradecin-2,5,11,13 (3H,6H,12H)-tetrone], the MIC in [1] was 32 µg/mL (≈ 40.9 µM); in [2], more than 32 µg/mL; in assay [3] it was more than 32 µg/mL; in [4], 2 µg/mL (≈ 2.56 µM); in [5] (read-out: minimum inhibitory concentration (MIC), Strain F), 8 µg/mL (≈ 10.2 µM); in assay [6], more than 32 µg/mL. Moreover, the MIC in [7] was 2 µg/mL (≈ 2.56 µM); in assay [8] (read-out: minimum inhibitory concentration (MIC), Strain E) it was 0.5 µg/mL (≈ 0.639 µM); in [9] it was 32 µg/mL (≈ 40.9 µM); in assay [10] it was more than 32 µg/mL; in assay [11], more than 32 µg/mL; in assay [12], 32 µg/mL (≈ 40.9 µM).

Take `CC[C@H]1OC(=O)[C@@](C)(F)C(=O)[C@H](C)[C@@H](O[C@@H]2O[C@H](C)C[C@H](N(C)C)[C@H]2O)[C@](C)(OC)C[C@@H](C)C(=O)[C@H](C)[C@H]2[C@@H](S(=O)(=O)Cc3ccc(OC)cc3)C(=O)O[C@@]21C` (single isomer, unassigned) [Example 2]: in [1], the “minimum inhibitory concentration (MIC), Strain G” value is more than 32 µg/mL. In assay [2], the “minimum inhibitory concentration (MIC), Strain D” value is more than 32 µg/mL. Further, the “minimum inhibitory concentration (MIC), Strain H” value in [3] is more than 32 µg/mL. For the same compound, the “minimum inhibitory concentration (MIC), Strain B” value in assay [4] is 2 µg/mL (≈ 2.46 µM). Moreover, the “minimum inhibitory concentration (MIC), Strain F” value in assay [5] is 4 µg/mL (≈ 4.91 µM). Also, the “minimum inhibitory concentration (MIC), Strain C” value in assay [6] is more than 32 µg/mL. Besides, the “minimum inhibitory concentration (MIC), Strain A” value in [7] was determined as 2 µg/mL (≈ 2.46 µM). Also, in [8], the “minimum inhibitory concentration (MIC), Strain E” value is given as “<=0.06 μg/ml”. Further, in [9], the “minimum inhibitory concentration (MIC), Strain M” value was more than 32 µg/mL. Besides, the “minimum inhibitory concentration (MIC), Strain K” value in [10] was more than 32 µg/mL. Further, the “minimum inhibitory concentration (MIC), Strain I” value in [11] is more than 32 µg/mL. The “minimum inhibitory concentration (MIC), Strain L” value in [12] amounted to 32 µg/mL (≈ 39.3 µM).

Regarding `CC[C@H]1OC(=O)[C@H](C)C(=O)[C@H](C)[C@@H](O[C@@H]2O[C@H](C)C[C@H](N(C)C)[C@H]2O)[C@](C)(OC)C[C@@H](C)C(=O)[C@H](C)[C@H]2[C@@H](SSc3ncccc3[N+](=O)[O-])C(=O)O[C@@]21C` (single isomer, unassigned) [Example 3], in assay [1], the “minimum inhibitory concentration (MIC), Strain G” value amounted to 32 µg/mL (≈ 40.1 µM). Moreover, the “minimum inhibitory concentration (MIC), Strain D” value in [2] was more than 32 µg/mL. For the same compound, the “minimum inhibitory concentration (MIC), Strain H” value in assay [3] was more than 32 µg/mL. For the same compound, the “minimum inhibitory concentration (MIC), Strain B” value in assay [4] was found to be 2 µg/mL (≈ 2.51 µM). In addition, the “minimum inhibitory concentration (MIC), Strain F” value in assay [5] is 16 µg/mL (≈ 20.1 µM). The “minimum inhibitory concentration (MIC), Strain C” value in assay [6] is more than 32 µg/mL. Also, the “minimum inhibitory concentration (MIC), Strain A” value in [7] is 2 µg/mL (≈ 2.51 µM). Further, in assay [8], the “minimum inhibitory concentration (MIC), Strain E” value is on record as “<=0.06 μg/ml”. In [9], the “minimum inhibitory concentration (MIC), Strain M” value was more than 32 µg/mL. For the same compound, in assay [10], the “minimum inhibitory concentration (MIC), Strain K” value is more than 32 µg/mL. In addition, the “minimum inhibitory concentration (MIC), Strain I” value in assay [11] is more than 32 µg/mL. Moreover, in assay [12], the “minimum inhibitory concentration (MIC), Strain L” value was more than 32 µg/mL.

On to `CC[C@H]1OC(=O)[C@H](C)C(=O)[C@H](C)[C@@H](O[C@@H]2O[C@H](C)C[C@H](N(C)C)[C@H]2O)[C@](C)(OC)C[C@@H](C)C(=O)[C@H](C)[C@H]2[C@@H](SCC(=O)OC)C(=O)O[C@@]21C` (single isomer, unassigned) [Example 5], for which the “minimum inhibitory concentration (MIC), Strain G” value in assay [1] was more than 32 µg/mL. Moreover, the “minimum inhibitory concentration (MIC), Strain D” value in assay [2] was more than 32 µg/mL. The “minimum inhibitory concentration (MIC), Strain H” value in [3] is more than 32 µg/mL. Further, the “minimum inhibitory concentration (MIC), Strain B” value in assay [4] turned out to be 1 µg/mL (≈ 1.4 µM). Moreover, in assay [5], the “minimum inhibitory concentration (MIC), Strain F” value was more than 32 µg/mL. Besides, in assay [6], the “minimum inhibitory concentration (MIC), Strain C” value was more than 32 µg/mL. Moreover, in assay [7], the “minimum inhibitory concentration (MIC), Strain A” value amounted to 1 µg/mL (≈ 1.4 µM). In [8], the “minimum inhibitory concentration (MIC), Strain E” value turned out to be 0.125 µg/mL (≈ 0.175 µM). Further, in [9], the “minimum inhibitory concentration (MIC), Strain M” value was 16 µg/mL (≈ 22.3 µM). For the same compound, in assay [10], the “minimum inhibitory concentration (MIC), Strain K” value was found to be 32 µg/mL (≈ 44.7 µM). Further, in [11], the “minimum inhibitory concentration (MIC), Strain I” value was found to be 32 µg/mL (≈ 44.7 µM). The “minimum inhibitory concentration (MIC), Strain L” value in [12] was 32 µg/mL (≈ 44.7 µM).

Take `CC[C@H]1OC(=O)[C@@](C)(F)C(=O)[C@H](C)[C@@H](O[C@@H]2O[C@H](C)C[C@H](N(C)C)[C@H]2O)[C@](C)(OC)C[C@@H](C)C(=O)[C@H](C)[C@H]2[C@@H](SCCCn3cc(-c4ccccc4)cn3)C(=O)O[C@@]21C` (single isomer, unassigned) [Example 10]: the “minimum inhibitory concentration (MIC), Strain G” value in assay [1] stood at 8 µg/mL (≈ 9.46 µM). Also, the “minimum inhibitory concentration (MIC), Strain D” value in assay [2] is more than 32 µg/mL. The “minimum inhibitory concentration (MIC), Strain H” value in assay [3] was determined as 16 µg/mL (≈ 18.9 µM). For the same compound, the “minimum inhibitory concentration (MIC), Strain B” value in assay [4] came to 0.5 µg/mL (≈ 0.591 µM). Moreover, in [5], the “minimum inhibitory concentration (MIC), Strain F” value is 2 µg/mL (≈ 2.36 µM). Also, in assay [6], the “minimum inhibitory concentration (MIC), Strain C” value was more than 32 µg/mL. Also, the “minimum inhibitory concentration (MIC), Strain A” value in assay [7] came out at 0.5 µg/mL (≈ 0.591 µM). Moreover, in [8], the “minimum inhibitory concentration (MIC), Strain E” value was 0.5 µg/mL (≈ 0.591 µM). The “minimum inhibitory concentration (MIC), Strain M” value in [9] was more than 32 µg/mL. In addition, in assay [10], the “minimum inhibitory concentration (MIC), Strain K” value was more than 32 µg/mL. In addition, the “minimum inhibitory concentration (MIC), Strain I” value in [11] worked out at 32 µg/mL (≈ 37.8 µM). The “minimum inhibitory concentration (MIC), Strain L” value in assay [12] stood at 32 µg/mL (≈ 37.8 µM).

As to `CC[C@H]1OC(=O)[C@H](C)C(=O)[C@H](C)[C@@H](O[C@@H]2O[C@H](C)C[C@H](N(C)C)[C@H]2O)[C@](C)(OC)C[C@@H](C)C(=O)[C@H](C)[C@H]2[C@@H](S(=O)(=O)CCNC(=O)c3cccnc3)C(=O)O[C@@]21C` (single isomer, unassigned) [Example 43, (3R or S, 3aR, 4R or S, 6R, 8R, 9R, 10R, 12R, 15R, 15aS) -15-Ethyloctahydro-8-methoxy-4,6,8,10,12,15a-hexamethyl-3-[[2-[(3-pyridinylcarbonyl)amino]ethyl]sulfonyl]-9-[[-3,4,6-trideoxy-3-(dimethylamino)-β-D-xylo-hexopyranosyl]oxy]-2H-furo [2,3-c] oxacyclotetradecin-2,5,11,13 (3H,6H,12H)-tetrone], the MIC in assay [1] was 32 µg/mL (≈ 38.8 µM); in [2] it was more than 32 µg/mL; in [3] it was more than 32 µg/mL; in assay [4], 1 µg/mL (≈ 1.21 µM); in assay [6], more than 32 µg/mL; in assay [7], 2 µg/mL (≈ 2.43 µM). Further, the MIC in assay [9] is 8 µg/mL (≈ 9.71 µM); in assay [10], 16 µg/mL (≈ 19.4 µM); in [11], 16 µg/mL (≈ 19.4 µM); in assay [12], 16 µg/mL (≈ 19.4 µM).
